Results as given in PMC11969009 (Nature Communications, 2025).
“And” between values parts separate entries of the source, which are not always exact repeats. Equal values may be shown once. Read-outs that look alike come from different tables or passages of the source.

What was measured:
[1] = target: MERS-CoV PLpro (Middle East respiratory syndrome-related coronavirus, UniProt K9N7C7); assay type: biochemical; design: unit: %
[2] = target: HKU1 PLpro (Human coronavirus HKU1, UniProt P0C6X2); experiment: biochemical; assay type: biochemical; design: inhibition of HKU1 PLpro, UbRh dose-response replicate value: unit: %
[3] = target: OC43 PLpro (Human coronavirus OC43, UniProt P0C6X6); assay type: biochemical; design: unit not given here
[4] = target: NL63 PL2pro (Human coronavirus NL63, UniProt P0C6X5); experiment: biochemical; design: inhibition of NL63 PL2pro, UbRh dose-response replicate value: unit: %
[5] = target: 229E PL2pro (Human coronavirus 229E, UniProt P0C6X1); experiment: biochemical; design: inhibition of 229E PL2pro, UbRh dose-response replicate value: unit: %
[6] = target: USP21 (Homo sapiens, UniProt Q9UK80); assay type: biochemical
[7] = target: T1, SARS-CoV-2 PLpro (Severe acute respiratory syndrome coronavirus 2, UniProt P0DTD1); experiment: biochemical; assay type: binding
[8] = target: T1, SARS-CoV-2 PLpro; experiment: cell-based; assay type: cell-based
[9] = system: SARS-CoV-2 clinical isolate VIC001; experiment: microbe, parasite or virus in culture; assay type: cell-based

CO/N=C(/c1ccc2cc(OC)ccc2c1)[C@@H]1CCCN([C@H]2CC[C@@H](O)CC2)C1 [WEHI-P4]
inhibition of MERS-CoV PLpro, UbRh dose-response replicate value ([1]; Conc 3.63 µM): -1.9557 and -1.916 and -5.199 and -5.618 | inhibition of MERS-CoV PLpro, UbRh dose-response replicate value ([1]; Conc 98 µM): -3.229 and -4.988 and -1.6159 and -4.525 | inhibition of HKU1 PLpro, UbRh dose-response replicate value [2]: 1.705 and -0.1054 and 2.2991 and 4.234 and 8.121 and -2.271 and 3.812 and 1.385 and 5.008 and 9.904 and 4.3232 and 13.1694 and 12.2718 and 4.484 and 1.663 and 12.2999 and 8.634 and 4.883 and 1.702 and 14.2701 | inhibition of HKU1 PLpro, UbRh dose-response replicate value ([2]; Conc 0.00498 µM): 10.7444 and 9.596 and 9.063 | inhibition at 0.00498 µM ([2]; Conc 0.00498 µM, read-out: inhibition of HKU1 PLpro, UbRh dose-response replicate value): 6.7% | inhibition of HKU1 PLpro, UbRh dose-response replicate value ([2]; Conc 0.0149 µM): 6.961 and -0.5687 and 9.316 and 1.404 | inhibition of HKU1 PLpro, UbRh dose-response replicate value ([2]; Conc 0.0448 µM): 2.999 and 18.114 and 6.887 and 6.926 | inhibition of HKU1 PLpro, UbRh dose-response replicate value ([2]; Conc 3.63 µM): -1.799 and 2.922 and 4.67 and 5.455 | inhibition of HKU1 PLpro, UbRh dose-response replicate value ([2]; Conc 98 µM): -6.574 and 1.985 and 4.593 and -1.2047 | inhibition of OC43 PLpro, UbRh dose-response replicate value [3]: -2.257 and 2.5807 and 4.868 and -0.1188 and -1.486 and 1.4475 and 10.2923 and 5.639 and 2.747 and 1.253 and 10.74 and 6.439 and 0.2359 and 1.058 and 1.648 and 0.7875 and 3.338 and 4.936 and 12.7203 and 5.2479 | inhibition of OC43 PLpro, UbRh dose-response replicate value ([3]; Conc 0.00498 µM): -1.019 and 4.2451 and 4.799 and 3.755 | inhibition of OC43 PLpro, UbRh dose-response replicate value ([3]; Conc 0.0149 µM): 3.285 and -5.104 and 7.176 and 0.6631 | inhibition of OC43 PLpro, UbRh dose-response replicate value ([3]; Conc 0.0448 µM): 1.599 and 3.82 and 6.435 and 3.684 | inhibition of OC43 PLpro, UbRh dose-response replicate value ([3]; Conc 3.63 µM): -4.48 and 0.0664 and 5.368 and 1.321 | inhibition of OC43 PLpro, UbRh dose-response replicate value ([3]; Conc 98 µM): 8.342 and 5.591 and 3.318 and 3.826 | IC50 [4]: 52000 nM | inhibition of NL63 PL2pro, UbRh dose-response replicate value [4]: 29.2044 and 27.2154 and 12.8016 and 14.0355 and 13.7224 and -0.9824 and 3.459 and 0.1256 and -0.3351 and 1.574 and 1.516 and -0.1016 and -0.4149 and 0.8753 and 0.8707 and 2.0171 and 6.071 | inhibition of NL63 PL2pro, UbRh dose-response replicate value ([4]; Conc 0.00498 µM): 2.403 and 7.259 and 5.7694 and -2.335 | inhibition of NL63 PL2pro, UbRh dose-response replicate value ([4]; Conc 0.0149 µM): 1.231 and 5.289 and 2.0908 and -3.1147 | inhibition of NL63 PL2pro, UbRh dose-response replicate value ([4]; Conc 0.0448 µM): 0.2539 and -0.387 and 1.95 and -0.1081 | inhibition of NL63 PL2pro, UbRh dose-response replicate value ([4]; Conc 3.63 µM): 5.122 and 3.572 and 1.225 and -0.02217 | inhibition of NL63 PL2pro, UbRh dose-response replicate value ([4]; Conc 98 µM): 57.8171 and 54.6906 and 55.1157 | inhibition at 98 µM ([4]; Conc 98 µM, read-out: inhibition of NL63 PL2pro, UbRh dose-response replicate value): 58.4% | inhibition at […] ([4]; read-out: inhibition of NL63 PL2pro, UbRh dose-response replicate value): 34.7% and 15.8% | inhibition of 229E PL2pro, UbRh dose-response replicate value [5]: -3.299 and -1.103 and -1.357 and -1.684 and -5 and -3.221 and 0.1898 and -0.4439 and 15.3408 and -2.102 and -1.619 and -0.7174 and -1.603 and -0.8771 and -3.61 and -1.122 and -1.443 and -0.5265 and -4.511 and -0.9697 | inhibition of 229E PL2pro, UbRh dose-response replicate value ([5]; Conc 0.00498 µM): -2.024 and 3.205 and 24.2526 and 1.229 | inhibition of 229E PL2pro, UbRh dose-response replicate value ([5]; Conc 0.0149 µM): -0.08917 and 0.9383 and 15.3791 and -0.8809 | inhibition of 229E PL2pro, UbRh dose-response replicate value ([5]; Conc 0.0448 µM): -0.8342 and -1.338 and 5.491 and -0.5647 | inhibition of 229E PL2pro, UbRh dose-response replicate value ([5]; Conc 3.63 µM): -3.66 and -1.559 and -7.103 and -2.2201 | inhibition of 229E PL2pro, UbRh dose-response replicate value ([5]; Conc 98 µM): 0.4544 and 1.371 and 3.91 and 5.222 | inhibition of USP21, UbRh dose-response replicate value [6]: -14.237 and -11.9773 and -10.1399 and -17.0381 and -16.4868 and -21.6825 and -18.261 and -18.781 and -13.7423 and -13.1772 and -6.117 and -6.284 and -18.5884 and -21.057 and -7.715 and -13.3224 | inhibition of USP21, UbRh dose-response replicate value ([6]; Conc 0.000249 µM): -14.4284 and -17.3988 and 5.209 and -15.2664 | inhibition of USP21, UbRh dose-response replicate value ([6]; Conc 0.000745 µM): -25.0632 and -19.3083 and -9.965 and -17.0572 | inhibition of USP21, UbRh dose-response replicate value ([6]; Conc 0.00675 µM): -16.8226 and -16.7878 and -5.942 and -9.8797 | inhibition of USP21, UbRh dose-response replicate value ([6]; Conc 0.545 µM): -6.303 and -14.0881 and -12.3002 and -21.4576 | inhibition of USP21, UbRh dose-response replicate value ([6]; Conc 1.64 µM): -4.137 and -7.939 and -11.2839 and -6.868 | inhibition of USP21, UbRh dose-response replicate value ([6]; Conc 4.9 µM): -8.882 and -9.138 | Kd [7]: 18 nM | Response (RU), report points [7]: 23.5521 RU and 19.8909 RU and 21.8514 RU and 23.0991 RU and 23.6093 RU and 23.8360 RU | EC50 [8]: 310 nM | EC50 ([9]; Severe acute respiratory syndrome coronavirus 2, Vero, read-out: Antiviral EC50 (plaque assay)): 400 nM | EC50 ([9]; Severe acute respiratory syndrome coronavirus 2, Vero, read-out: Antiviral EC50 (plaque assay) with Pgp inhibitor): 306 nM | EC50 ([9]; read-out: Antiviral EC50 (plaque assay)): 410 nM
